From publication PMC3175004 (Aquatic toxicology (Amsterdam, Netherlands), 2010)

Experiments:
beluga AHR [1] = biological target: T1, beluga AHR (Delphinapterus leucas, UniProt Q95LD9); assay type: binding
T1 sequence (Q95LD9 11-845): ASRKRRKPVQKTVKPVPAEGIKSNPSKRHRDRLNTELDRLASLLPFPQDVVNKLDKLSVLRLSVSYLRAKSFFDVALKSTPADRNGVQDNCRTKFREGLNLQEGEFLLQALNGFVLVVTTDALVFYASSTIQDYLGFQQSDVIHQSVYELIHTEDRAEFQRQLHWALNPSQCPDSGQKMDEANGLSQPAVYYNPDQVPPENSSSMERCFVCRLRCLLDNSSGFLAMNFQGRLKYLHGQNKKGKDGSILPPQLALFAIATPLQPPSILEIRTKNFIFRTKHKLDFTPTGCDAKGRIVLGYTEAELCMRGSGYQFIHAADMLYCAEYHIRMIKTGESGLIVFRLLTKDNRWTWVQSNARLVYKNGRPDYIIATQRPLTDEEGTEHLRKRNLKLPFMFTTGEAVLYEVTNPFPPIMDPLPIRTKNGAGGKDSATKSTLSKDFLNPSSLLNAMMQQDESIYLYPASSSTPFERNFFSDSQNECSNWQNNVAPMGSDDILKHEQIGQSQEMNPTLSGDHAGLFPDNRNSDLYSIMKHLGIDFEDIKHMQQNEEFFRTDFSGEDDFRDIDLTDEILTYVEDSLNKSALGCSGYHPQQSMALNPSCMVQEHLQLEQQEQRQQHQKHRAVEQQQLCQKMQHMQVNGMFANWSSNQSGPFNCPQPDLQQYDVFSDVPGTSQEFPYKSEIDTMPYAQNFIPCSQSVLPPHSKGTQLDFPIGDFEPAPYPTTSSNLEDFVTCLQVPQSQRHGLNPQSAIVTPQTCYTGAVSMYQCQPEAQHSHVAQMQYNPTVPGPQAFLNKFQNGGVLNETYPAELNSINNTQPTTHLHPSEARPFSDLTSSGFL

[2] = biological target: T2, mouse AHR (Ah^b-1 allele) (Mus musculus, UniProt P30561); assay type: binding
T2 sequence (P30561 10-848): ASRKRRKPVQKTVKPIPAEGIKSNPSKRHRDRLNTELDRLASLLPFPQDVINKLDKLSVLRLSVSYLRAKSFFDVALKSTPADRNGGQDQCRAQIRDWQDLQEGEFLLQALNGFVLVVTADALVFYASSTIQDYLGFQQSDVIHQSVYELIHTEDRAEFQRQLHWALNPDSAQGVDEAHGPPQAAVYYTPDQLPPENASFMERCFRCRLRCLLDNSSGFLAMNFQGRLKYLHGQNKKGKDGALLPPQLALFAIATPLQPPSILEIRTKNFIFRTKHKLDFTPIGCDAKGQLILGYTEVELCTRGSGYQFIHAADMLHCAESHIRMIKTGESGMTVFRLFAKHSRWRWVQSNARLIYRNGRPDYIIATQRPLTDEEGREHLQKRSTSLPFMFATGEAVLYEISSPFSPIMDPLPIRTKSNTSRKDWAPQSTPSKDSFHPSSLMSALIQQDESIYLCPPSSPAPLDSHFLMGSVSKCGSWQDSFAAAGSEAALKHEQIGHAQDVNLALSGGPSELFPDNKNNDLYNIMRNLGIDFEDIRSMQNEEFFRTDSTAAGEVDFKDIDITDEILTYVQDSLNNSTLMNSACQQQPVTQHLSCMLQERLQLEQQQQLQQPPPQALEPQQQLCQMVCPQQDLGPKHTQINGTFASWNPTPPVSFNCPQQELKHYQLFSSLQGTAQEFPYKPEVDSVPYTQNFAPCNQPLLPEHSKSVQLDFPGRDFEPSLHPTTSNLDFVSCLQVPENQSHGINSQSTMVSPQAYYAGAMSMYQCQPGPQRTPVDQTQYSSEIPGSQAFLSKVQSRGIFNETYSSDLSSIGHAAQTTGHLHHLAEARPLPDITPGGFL

[3] = test system: mouse AHR (Ah^b-1 allele); assay type: binding; settings: mouse REP vs rat REP
beluga AHR [4] = settings: determined by saturation binding; ref Jensen and Hahn 2001; cited from earlier work

Clc1ccc(-c2ccc(Cl)c(Cl)c2Cl)c(Cl)c1Cl [PCB-128]
inhibition of [3H]TCDD binding reached by the curves (beluga AHR [1]; beluga AHR, maximum reached by competition curves): 90% | inhibition of [3H]TCDD binding reached by the curves ([2]; mouse AHR, maximum reached by competition curves): 80%

Clc1ccc(-c2cc(Cl)c(Cl)cc2Cl)cc1Cl [PCB-118]
fold lower REP compared to rat (beluga AHR [1]; beluga REP vs rat REP): 15 fold | fold lower REP compared to rat [3]: 10 fold

Clc1ccc(-c2cc(Cl)c(Cl)c(Cl)c2)cc1 [PCB-81]
fold higher binding REP compared to rat (beluga AHR [1]; beluga REP vs rat REP): 14 fold | fold higher binding REP compared to rat [3]: 28 fold

Clc1cc2c(cc1Cl)Oc1cc(Cl)c(Cl)cc1O2 [TCDD, 2,3,7,8-tetrachlorodibenzo-p-dioxin, reference compound]
IC50 (beluga AHR [1]): 470 pM | Ki (beluga AHR [1]): 100 pM | Ki [2]: 360 pM

[3H]c1c(Cl)c(Cl)cc2c1Oc1cc(Cl)c(Cl)c([3H])c1O2 [[^3H]TCDD, 2,3,7,8-Tetrachloro[1,6-^3H]dibenzo-p-dioxin]
binding affinity for beluga AHR vs mouse AHR, fold higher (beluga AHR [4]): ~ 2 fold
